Test results reported in ChEMBL document CHEMBL5365473, “Novel Sulfonylurea-Based NLRP3 Inflammasome Inhibitor for Efficient Treatment of Nonalcoholic Steatohepatitis, Endotoxic Shock, and Colitis” (J Med Chem, 2023).
Active and inactive are the calls of the source. The rule behind the calls is not given here.

What was measured:
[1] = Effect on immune cell numbers in MCS diet-fed C57BL/6 mouse assessed as effect on CD45 expression at 40 mg/kg, po administered via gavage for 5 weeks by immunofluorescence staining based analysis; assay type: toxicity, organism-based; settings: in vivo, 840 h
[2] = tested on: Mus musculus; assay: Antiinflammatory activity against MCD diet-induced NASH C57BL/6 mouse model assessed as reduction in balloon dilatation in liver at 40 mg/kg, po administered via gavage for 5 weeks by Masson's trichrome staining based analysis; assay type: functional, organism-based
[3] = tested on: Mus musculus; assay: Antiinflammatory activity against MCD diet-induced NASH C57BL/6 mouse model assessed as reduction in liver steatosis at 40 mg/kg, po administered via gavage for 5 weeks by Masson's trichrome staining based analysis; assay type: functional, organism-based
[4] = target: NACHT, LRR and PYD domains-containing protein 3 (Mus musculus, UniProt Q8R4B8); assay: Inhibition of NLRP3 inflammasome in mouse […] cells assessed as inhibition of LPS/ATP-induced IL-1 beta secretion primed with LPS for 4.5 hs followed by incubation with compound for 30 mins and later stimulation with ATP for 30 mins by ELISA; assay type: cell-based, J774.A1
Chain of NACHT, LRR and PYD domains-containing protein 3 (Q8R4B8 whole entry, the tested form may be a part): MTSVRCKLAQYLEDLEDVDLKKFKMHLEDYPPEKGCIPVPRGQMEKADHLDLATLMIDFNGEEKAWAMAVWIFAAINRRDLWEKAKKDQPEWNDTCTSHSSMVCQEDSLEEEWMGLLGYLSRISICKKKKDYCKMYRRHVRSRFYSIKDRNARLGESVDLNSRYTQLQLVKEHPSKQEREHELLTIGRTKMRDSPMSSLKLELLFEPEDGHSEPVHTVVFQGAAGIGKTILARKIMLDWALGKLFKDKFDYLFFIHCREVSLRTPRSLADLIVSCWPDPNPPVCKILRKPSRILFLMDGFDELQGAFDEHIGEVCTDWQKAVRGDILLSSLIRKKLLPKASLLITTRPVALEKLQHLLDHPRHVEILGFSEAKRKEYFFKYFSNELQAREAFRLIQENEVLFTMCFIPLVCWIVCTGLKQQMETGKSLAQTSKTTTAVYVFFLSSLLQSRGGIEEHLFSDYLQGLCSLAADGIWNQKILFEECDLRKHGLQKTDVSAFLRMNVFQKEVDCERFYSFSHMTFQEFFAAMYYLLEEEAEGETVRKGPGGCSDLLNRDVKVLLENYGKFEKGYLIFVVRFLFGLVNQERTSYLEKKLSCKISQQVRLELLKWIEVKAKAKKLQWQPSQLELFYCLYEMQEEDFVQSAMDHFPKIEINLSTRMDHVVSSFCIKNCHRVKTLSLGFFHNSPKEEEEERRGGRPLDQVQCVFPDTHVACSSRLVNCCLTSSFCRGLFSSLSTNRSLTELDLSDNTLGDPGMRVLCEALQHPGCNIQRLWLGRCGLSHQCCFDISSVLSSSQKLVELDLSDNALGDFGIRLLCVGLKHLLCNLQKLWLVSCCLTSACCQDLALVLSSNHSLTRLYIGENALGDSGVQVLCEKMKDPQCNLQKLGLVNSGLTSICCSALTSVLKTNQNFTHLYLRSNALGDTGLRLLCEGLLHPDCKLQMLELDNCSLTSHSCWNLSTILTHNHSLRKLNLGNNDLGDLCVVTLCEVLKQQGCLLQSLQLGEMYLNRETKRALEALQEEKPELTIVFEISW

[5] = Toxicity against female ICR mouse assessed as effect on body weight at 200 to 500 mg/kg administered via gavage for 12 days; assay type: organism-based; settings: in vivo, po, 288 h, dose 200-500 mg/kg, time 12 day
[6] = Toxicity against female ICR mouse assessed as effect on liver weight at 200 to 500 mg/kg administered via gavage for 12 days; assay type: organism-based; settings: in vivo, po, 288 h, dose 200-500 mg/kg, time 12 day
[7] = Toxicity against female ICR mouse assessed as effect on spleen weight at 200 to 500 mg/kg administered via gavage for 12 days; assay type: organism-based; settings: in vivo, po, 288 h, dose 200-500 mg/kg, time 12 day
[8] = Toxicity against female ICR mouse assessed as effect on lung weight at 200 to 500 mg/kg administered via gavage for 12 days; assay type: organism-based; settings: in vivo, po, 288 h, dose 200-500 mg/kg, time 12 day
[9] = Toxicity against male ICR mouse assessed as effect on spleen weight at 200 to 500 mg/kg administered via gavage for 12 days; assay type: organism-based; settings: in vivo, po, 288 h, dose 200-500 mg/kg, time 12 day
[10] = Toxicity against male ICR mouse assessed as effect on lung weight at 200 to 500 mg/kg administered via gavage for 12 days; assay type: organism-based; settings: in vivo, po, 288 h, dose 200-500 mg/kg, time 12 day
[11] = Toxicity against male ICR mouse assessed as effect on kidney weight at 200 to 500 mg/kg administered via gavage for 12 days; assay type: organism-based; settings: in vivo, po, 288 h, dose 200-500 mg/kg, time 12 day
[12] = Toxicity against female ICR mouse assessed as effect on plasma AST level at 200 to 500 mg/kg administered via gavage for 12 days; assay type: organism-based; settings: in vivo, po, 288 h, dose 200-500 mg/kg, time 12 day
[13] = Toxicity against male ICR mouse assessed as effect on plasma AST level at 200 to 500 mg/kg administered via gavage for 12 days; assay type: organism-based; settings: in vivo, po, 288 h, dose 200-500 mg/kg, time 12 day
[14] = target: NACHT, LRR and PYD domains-containing protein 3 (Mus musculus) (UniProt Q8R4B8); assay: Inhibition of NLRP3 inflammasome in mouse J774.A1 cells assessed as inhibition of caspase-1 activation at 30 nM primed with LPS for 4.5 hrs followed by incubation with compound for 24 hrs and later stimulated with nigericin for 1 hr by immunoblot analysis; assay type: cell-based; settings: time 25.0 hrs
Chain of NACHT, LRR and PYD domains-containing protein 3 (Mus musculus) (Q8R4B8 whole entry, the tested form may be a part): as above

[15] = target: T1, Interferon-inducible protein AIM2 (Mus musculus) (UniProt Q91VJ1); assay: Inhibition of AIM2 inflammasome in mouse J774.A1 cells assessed as inhibition of IL-1 beta secretion at 30 nM primed with LPS for 4.5 hrs followed by incubation with compound for 24 hrs and later stimulated with poly (dA:dT) for 6 hrs by immunoblot analysis; assay type: cell-based; settings: time 30.0 hrs
T1 sequence (whole entry): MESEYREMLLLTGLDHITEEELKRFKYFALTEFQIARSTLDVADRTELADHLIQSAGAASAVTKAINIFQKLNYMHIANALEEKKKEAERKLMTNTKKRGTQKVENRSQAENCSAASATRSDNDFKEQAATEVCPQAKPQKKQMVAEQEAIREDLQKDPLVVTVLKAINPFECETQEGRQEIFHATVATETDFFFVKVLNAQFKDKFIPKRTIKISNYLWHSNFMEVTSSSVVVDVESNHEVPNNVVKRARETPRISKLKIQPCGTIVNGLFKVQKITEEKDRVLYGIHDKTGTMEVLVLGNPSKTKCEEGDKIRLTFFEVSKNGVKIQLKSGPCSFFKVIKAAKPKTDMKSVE

[16] = target: NLR family CARD domain-containing protein 4 (Mus musculus) (UniProt Q3UP24); assay: Inhibition of NLRC4 inflammasome in mouse J774.A1 cells assessed as inhibition of caspase-1 activation at 30 nM primed with LPS for 4.5 hrs followed by incubation with compound for 24 hrs and later stimulated with flagellin for 24 hrs by immunoblot analysis; assay type: cell-based; settings: time 48.0 hrs
Chain of NLR family CARD domain-containing protein 4 (Mus musculus) (Q3UP24 whole entry, the tested form may be a part): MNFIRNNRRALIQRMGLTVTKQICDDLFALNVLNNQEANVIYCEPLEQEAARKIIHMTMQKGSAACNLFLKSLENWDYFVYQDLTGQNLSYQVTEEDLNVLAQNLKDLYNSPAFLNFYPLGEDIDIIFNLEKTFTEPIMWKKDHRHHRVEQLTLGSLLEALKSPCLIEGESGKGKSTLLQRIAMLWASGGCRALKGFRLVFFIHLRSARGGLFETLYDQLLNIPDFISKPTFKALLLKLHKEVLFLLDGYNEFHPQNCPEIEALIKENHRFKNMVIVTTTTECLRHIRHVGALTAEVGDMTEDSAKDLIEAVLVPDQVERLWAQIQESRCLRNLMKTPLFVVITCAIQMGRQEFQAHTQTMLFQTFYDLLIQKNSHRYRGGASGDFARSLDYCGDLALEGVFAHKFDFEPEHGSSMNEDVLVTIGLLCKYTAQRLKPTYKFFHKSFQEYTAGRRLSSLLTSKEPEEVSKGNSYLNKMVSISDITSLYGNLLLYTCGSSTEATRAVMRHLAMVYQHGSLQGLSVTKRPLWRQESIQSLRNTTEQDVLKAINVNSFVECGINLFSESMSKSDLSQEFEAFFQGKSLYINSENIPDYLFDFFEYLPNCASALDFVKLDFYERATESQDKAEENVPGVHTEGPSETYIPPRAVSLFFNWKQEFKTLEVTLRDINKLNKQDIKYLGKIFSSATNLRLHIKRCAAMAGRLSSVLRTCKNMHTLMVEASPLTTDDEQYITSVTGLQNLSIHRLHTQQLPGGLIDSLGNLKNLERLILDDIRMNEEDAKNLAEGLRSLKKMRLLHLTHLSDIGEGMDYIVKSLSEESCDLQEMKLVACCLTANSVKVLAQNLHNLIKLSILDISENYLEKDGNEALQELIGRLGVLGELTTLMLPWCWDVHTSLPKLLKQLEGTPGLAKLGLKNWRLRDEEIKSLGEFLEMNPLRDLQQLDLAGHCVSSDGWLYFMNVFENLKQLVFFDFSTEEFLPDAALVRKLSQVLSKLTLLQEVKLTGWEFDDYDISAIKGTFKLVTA

[17] = target: NLR family CARD domain-containing protein 4 (Mus musculus) (UniProt Q3UP24); assay: Inhibition of NLRC4 inflammasome in mouse J774.A1 cells assessed as inhibition of IL-1 beta secretion at 30 nM primed with LPS for 4.5 hrs followed by incubation with compound for 24 hrs and later stimulated with flagellin for 24 hrs by immunoblot analysis; assay type: cell-based; settings: time 48.0 hrs
[18] = Tmax in ICR mouse at 5 mg/kg, iv by LC-MS/MS analysis; assay type: ADME, organism-based; settings: in vivo
[19] = Cmax in ICR mouse at 5 mg/kg, iv by LC-MS/MS analysis; assay type: ADME, organism-based; set-up: dose 5 mg/kg, route iv; settings: in vivo
[20] = AUC (0 to infinity) in ICR mouse at 10 mg/kg, po by LC-MS/MS analysis; assay type: ADME, organism-based; set-up: dose 10 mg/kg, route po; settings: in vivo
[21] = Drug uptake in Sprague-Dawley rat stomach at 50 mg/kg, po measured for 24 hrs by LC-MS/MS analysis; assay type: ADME, organism-based; settings: in vivo
[22] = Drug uptake in Sprague-Dawley rat jejunum at 50 mg/kg, po measured for 24 hrs by LC-MS/MS analysis; assay type: ADME, organism-based; settings: in vivo
[23] = Drug uptake in Sprague-Dawley rat heart at 50 mg/kg, po measured for 24 hrs by LC-MS/MS analysis; assay type: ADME, organism-based; settings: in vivo
[24] = tested on: Mus musculus; assay: Antiinflammatory activity against MCD diet-induced NASH C57BL/6 mouse model assessed as reduction in balloon dilatation in liver at 40 mg/kg, po administered via gavage for 5 weeks by H and E staining based analysis; assay type: functional, organism-based
[25] = tested on: Mus musculus; assay: Antiinflammatory activity against MCD diet-induced NASH C57BL/6 mouse model assessed as reduction in liver fibrosis at 40 mg/kg, po administered via gavage for 5 weeks by H and E staining based analysis; assay type: functional, organism-based
[26] = tested on: Mus musculus; assay: Antiinflammatory activity against MCD diet-induced NASH C57BL/6 mouse model assessed as reduction in TUNEL-positive hepatic cells at 40 mg/kg, po administered via gavage for 5 weeks by TUNEL assay; assay type: functional, organism-based
[27] = tested on: Mus musculus; assay: Antiinflammatory activity against MCD diet-induced NASH C57BL/6 mouse model assessed as reduction in immune cell infiltration by measuring reduction in F4/80-positive hepatic cells at 40 mg/kg, po administered via gavage for 5 weeks by immunofluorescence staining based analysis; assay type: functional, organism-based
[28] = tested on: Mus musculus; assay: Antiinflammatory activity against DSS-induced ulcerative colitis C57BL/6 mouse assessed as reduction in body weight loss at 10 mg/kg, ip administered for 9 days and measured daily; assay type: functional, organism-based; settings: time 9.0 day
[29] = tested on: Mus musculus; assay: Antiinflammatory activity against DSS-induced ulcerative colitis C57BL/6 mouse assessed as reduction in colon length shortening at 10 mg/kg, ip administered for 9 days and measured on day 10; assay type: functional, organism-based; settings: time 10.0 day
[30] = tested on: Mus musculus; assay: Antiinflammatory activity against DSS-induced ulcerative colitis C57BL/6 mouse assessed as reduction in massive loss of goblet cells in colon at 10 mg/kg, ip administered for 9 days and measured on day 10 by H and E staining based analysis; assay type: functional, organism-based; settings: time 10.0 day

Compound: CN(C)Cc1ccc(S(=O)(=O)NC(=O)Nc2c3c(cc4c2CCC4)CCC3)cc1
- Activity [1]: Non-Toxic
- Activity [2]: Active
- Activity [3]: Active
- IC50 [4]: 25 nM
- Activity [5]: Non-Toxic
- Activity [6]: Non-Toxic
- Activity [7]: Non-Toxic
- Activity [8]: Non-Toxic
- Activity [9]: Non-Toxic
- Activity [10]: Non-Toxic
- Activity [11]: Non-Toxic
- Activity [12]: Non-Toxic
- Activity [13]: Non-Toxic
- inhibition [14]: Active
- inhibition [15]: inactive
- inhibition [16]: inactive
- inhibition [17]: inactive
- Tmax [18]: 4.98 min
- Cmax [19]: 22600 ng/mL
- AUC(0-inf) [20]: 222 µg·h/mL
- Drug uptake [21]: Active
- Drug uptake [22]: Active
- Drug uptake [23]: Active
- Activity [24]: Active
- Activity [25]: Active
- Activity [26]: Active
- Activity [27]: Active
- Activity [28]: Active
- Activity [29]: Active
- Activity [30]: Active
